From US8815857B2 (Boehringer Ingelheim International GmbH, priority 2011, dated 2014)
Converted amounts (≈) assume the structure as drawn.

What was measured:
[1] = Assessment of solubility: HT solubility in pION buffer, UV spectrophotometry; conditions: kinetic from dmso stock
[2] = molecular target: T1, human soluble guanylate cyclase alpha 1 and beta 1 subunits (sGC) stably expressed in Chinese hamster ovary cells (Homo sapiens, UniProt Q02108+Q02153); assay: sGC cellular activator assay: cGMP in CHO cells expressing human sGC, preincubated with ODQ; assay type: cell-based; conditions: 40 microM ODQ preincubation, 30 min at room temperature, presence or absence of 50% human serum not given, read-out: EC50 nM, Activity of Compounds in Cellular Assay
T1 construct: expressed in transfected cells; host or cells: Chinese hamster ovary cells, stably transfected
T1 sequence (Q02108 1-690 partner): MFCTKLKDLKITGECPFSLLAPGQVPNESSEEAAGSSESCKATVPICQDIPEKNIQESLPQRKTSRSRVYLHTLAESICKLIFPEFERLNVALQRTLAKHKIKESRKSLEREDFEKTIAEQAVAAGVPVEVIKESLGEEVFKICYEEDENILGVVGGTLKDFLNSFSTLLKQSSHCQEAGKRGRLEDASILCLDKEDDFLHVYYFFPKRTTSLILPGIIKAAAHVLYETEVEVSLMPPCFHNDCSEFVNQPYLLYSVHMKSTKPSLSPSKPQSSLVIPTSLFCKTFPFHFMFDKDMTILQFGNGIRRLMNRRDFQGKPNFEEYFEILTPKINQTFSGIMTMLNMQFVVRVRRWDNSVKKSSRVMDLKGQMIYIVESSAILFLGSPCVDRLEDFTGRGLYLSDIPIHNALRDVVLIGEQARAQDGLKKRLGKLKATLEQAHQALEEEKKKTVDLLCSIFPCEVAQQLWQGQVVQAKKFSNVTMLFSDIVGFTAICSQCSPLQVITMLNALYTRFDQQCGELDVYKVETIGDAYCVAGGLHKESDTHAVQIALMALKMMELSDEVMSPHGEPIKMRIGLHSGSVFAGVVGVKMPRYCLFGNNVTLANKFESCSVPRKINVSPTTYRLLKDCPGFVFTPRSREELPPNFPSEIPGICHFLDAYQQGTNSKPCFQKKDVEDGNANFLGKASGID
T1 sequence (Q02153 1-619): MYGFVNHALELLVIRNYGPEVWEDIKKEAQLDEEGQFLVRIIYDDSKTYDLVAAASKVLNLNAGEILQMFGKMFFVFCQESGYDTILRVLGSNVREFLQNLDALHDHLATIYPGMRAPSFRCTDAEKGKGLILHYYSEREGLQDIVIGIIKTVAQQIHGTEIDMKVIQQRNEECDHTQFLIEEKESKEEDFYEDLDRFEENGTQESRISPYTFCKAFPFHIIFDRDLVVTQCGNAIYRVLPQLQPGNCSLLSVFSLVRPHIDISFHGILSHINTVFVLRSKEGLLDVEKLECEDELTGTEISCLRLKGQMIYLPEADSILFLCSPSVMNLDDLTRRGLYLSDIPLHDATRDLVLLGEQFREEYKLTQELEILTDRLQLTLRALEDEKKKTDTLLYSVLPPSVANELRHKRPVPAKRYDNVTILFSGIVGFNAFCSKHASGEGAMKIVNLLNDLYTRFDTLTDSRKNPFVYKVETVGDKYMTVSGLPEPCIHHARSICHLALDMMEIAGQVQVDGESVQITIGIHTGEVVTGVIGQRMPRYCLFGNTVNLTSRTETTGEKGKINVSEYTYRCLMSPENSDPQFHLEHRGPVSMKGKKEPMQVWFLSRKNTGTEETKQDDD
Summary of the method: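 EC50 values derive from HTRF cGMP measurement after test compounds act for thirty minutes at room temperature, with or without 50% human serum. Before dosing, the sGC-transfected CHO cells spend one hour with the inhibitor ODQ (40 microM) in IBMX- and 0.1% BSA-containing buffer.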

[3] = molecular target: T2, Recombinant human soluble guanylate cyclase (sGC), alpha 1 / beta 1 subunits, heme-free (Homo sapiens, UniProt Q02108+Q02153); assay: Molecular assay: cGMP formation by heme-free recombinant sGC (CisBio cGMP detection kit); assay type: biochemical; conditions: 300 pM heme-free sGC, 37° C., 60 min, cGMP readout; read-out: EC50 nM, Activity of Compounds in Molecular Assay
T2 construct: histidine tag (C); made in house; host or cells: Sf9 insect cells (baculovirus coinfection)
T2 sequence (Q02108 1-690 partner): T1 sequence (Q02108 1-690 partner)
T2 sequence (Q02153 1-619): T1 sequence (Q02153 1-619)
Summary of the method: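 cGMP generated over 60 min at 37° C (pH 6.8 MOPS buffer, 50 nM GTP, 1.25 mM IBMX, 1% DMSO) by 300 pM heme-free sGC, expressed in Sf9 and heme-stripped with 0.5% Tween 20. HTRF ratios converted to nM cGMP; EC50 fitted from log concentration.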

physchem = conditions: kinetic from dmso stock
[4] = pION system solution buffer, pH 4.5, pH 4.5, aqueous buffer, Solubility (pH 4.5), pH 4.5 buffer, 16-19 h incubation, 1.0% DMSO
[5] = pION system solution buffer, pH 7.4, pH 7.4, aqueous buffer, Solubility (pH 7.4), pH 7.4 buffer, 16-19 h incubation, 1.0% DMSO

SMILES | solubility [1, 4] | solubility [1, 5] | EC50 [2] | EC50 [3] | solubility ([1]; pH 6.8, aqueous buffer, Solubility (pH 6.8), pH 6.8) | solubility (physchem; pH 4.5, aqueous buffer, Solubility (pH 4.5)) | solubility (physchem; pH 7.4, aqueous buffer, Solubility (pH 7.4))
Cc1ccc(OCc2ccc(CN3CCN4CCCC4C3)cc2C)c(-c2csc(N3CCC(C(=O)O)CC3)n2)c1 (stereo not shown) [Compound 350] | > 56 µg/mL | > 56 µg/mL | 170 nM | 260 nM | – | – | –
Cc1cc(CN2CCOCC2)ccc1COc1c(C)cccc1-c1csc(N2C3CCC2CC(C(=O)O)C3)n1 (stereo not shown) [Compound 210] | > 58 µg/mL | > 58 µg/mL | 430 nM | 350 nM | – | – | –
Cc1ccc(OCc2ccc(CN3CCOCC3)cc2C)c(-c2csc(N3CCC4(C(=O)O)CC4C3)n2)c1 (stereo not shown) [Compound 218] | > 64 µg/mL | 39 µg/mL (≈ 73.1 µM) | 18 nM | 170 nM | – | – | –
Cc1cc(CN2CCS(=O)(=O)CC2)ccc1COc1c(C)cccc1-c1csc(N2C[C@H]3CC[C@@H](C2)[C@H]3C(=O)O)n1 [Compound 203] | 3 µg/mL (≈ 5.04 µM) | > 59 µg/mL | 68 nM | 23 nM | – | – | –
Cc1ccc(OCc2ccc(C(=O)N3CCCCC3)cc2C)c(-c2csc(N3C[C@H]4CC[C@@H](C3)[C@@]4(C)C(=O)O)n2)c1 [Compound 214] | < 0.1 µg/mL | 21 µg/mL (≈ 36.6 µM) | 15 nM | 22 nM | 51 µg/mL (≈ 88.9 µM) | – | –
Cc1ccc(OCc2ccc(CN3CCS(=O)(=O)CC3)cc2C)c(-c2csc(N3CCCC(C(=O)O)CC3)n2)c1 (stereo not shown) [Compound 234] | 3.3 µg/mL (≈ 5.65 µM) | > 58 µg/mL | 7.9 nM | 6 nM | – | – | –
Cc1cc(C(=O)N2CCCCC2)ccc1COc1c(C)cccc1-c1csc(N2C[C@H]3CC[C@@H](C2)[C@H]3C(=O)O)n1 [Compound 208] | 0.3 µg/mL (≈ 0.536 µM) | > 55 µg/mL | 39 nM | 250 nM | – | – | –
Cc1cc(CN2CCS(=O)(=O)CC2)ccc1COc1ccc(Cl)cc1-c1csc(N2CC3CCC(C2)C3C(=O)O)n1 (stereo not shown) [Compound 211] | 1.4 µg/mL (≈ 2.27 µM) | 17 µg/mL (≈ 27.6 µM) | 190 nM | 370 nM | – | – | –
Cc1ccc(OCc2ccc(CN3CCOCC3)cc2OC(F)(F)F)c(-c2csc(N3CCC(C(=O)O)CC3)n2)c1 [Compound 277] | 21 µg/mL (≈ 35.5 µM) | 41 µg/mL (≈ 69.3 µM) | 16 nM | 74 nM | – | – | –
Cc1ccc(OCc2ccc(CN3CCS(=O)(=O)CC3)cc2C)c(-c2csc(N3C[C@H]4C[C@@H](C3)[C@H]4C(=O)O)n2)c1 [Compound 235] | 8.1 µg/mL (≈ 13.9 µM) | > 58 µg/mL | 57 nM | 47 nM | – | – | –
Cc1ccc(OCc2ccc(CN3CCN(C(=O)C4CC4)CC3)cc2C)c(-c2csc(N3CCC(C(=O)O)CC3)n2)c1 [Compound 198] | – | – | – | 20 nM | – | 37 µg/mL (≈ 62.8 µM) | > 58 µg/mL
Cc1cc(CN2CCS(=O)(=O)CC2)ccc1COc1ccc(C#N)cc1-c1csc(N2CCC(C(=O)O)CC2)n1 [Compound 273] | 7.3 µg/mL (≈ 12.6 µM) | > 82 µg/mL | 570 nM | 320 nM | – | – | –
Cc1ccc(OCc2ccc(CN3CCS(=O)(=O)CC3)cc2C)c(-c2csc(N3CCC(CC(=O)O)CC3)n2)c1 [Compound 219] | 2.4 µg/mL (≈ 4.11 µM) | 41 µg/mL (≈ 70.2 µM) | 300 nM | 1000 nM | – | – | –
Cc1ccc(OCc2ccc(C(=O)N3CCCCC3)cc2C)c(-c2csc(N3C[C@H]4C[C@@H](C3)[C@H]4C(=O)O)n2)c1 [Compound 236] | 6.6 µg/mL (≈ 12.1 µM) | > 54 µg/mL | 79 nM | 190 nM | – | – | –
Cc1ccc(OCc2ccc(CN3CCS(=O)(=O)CC3)cc2C)c(-c2csc(N3CCC(C(=O)O)C(C)C3)n2)c1 (stereo not shown) [Compound 204] | 0.35 µg/mL (≈ 0.6 µM) | 54 µg/mL (≈ 92.5 µM) | 17 nM | 28 nM | – | – | –
Cc1ccc(OCc2ccc(CN3CCN(C(=O)C4CC4)CC3)cc2C#N)c(-c2csc(N3CCC(C(=O)O)CC3)n2)c1 [Compound 352] | 22 µg/mL (≈ 36.7 µM) | > 59 µg/mL | 76 nM | 14 nM | – | – | –
